Assay results reported in ChEMBL document CHEMBL1833811, “Design, synthesis and structure-activity relationship of novel [3.3.1] bicyclic sulfonamide-pyrazoles as potent γ-secretase inhibitors” (Bioorg Med Chem Lett, 2011).

Assays:
[1] = Ratio of drug uptake in brain to plasma of wild type FVB mouse; format: ADME; conditions: brain and plasma, read-out: BPR
[2] = Oral bioavailability in wild type FVB mouse; format: ADME, organism-based; conditions: in vivo

Kp [1] | Compound | bioavailability [2] [%]
0.3 | O=S(=O)(c1ccc(C(F)(F)F)nc1)N1C2Cc3[nH]ncc3C1CC(c1ccc(F)cc1)C2 (single isomer, unassigned) | 
0.08 | Cc1noc(C2CC3Cc4[nH]ncc4C(C2)N3S(=O)(=O)c2ccc(Cl)cc2)n1 (single isomer, unassigned) | 
 | O=S(=O)(c1ccc(Cl)cc1)N1C2CCCC1c1cn[nH]c1C2 (single isomer, unassigned) | 2
